We go through 1 compound from patent publication US20210284691A1, “CBX8 CHROMDOMAIN INHIBITORS AND THE USES THEREOF” (Purdue Research Foundation, priority 2019, published 2021).

In the assay the target is T1, CBX8 binding to chromatin (Homo sapiens, UniProt Q9HC52).
T1 construct: endogenous in cells; host or cells: Hs68 fibroblasts (A16); HEK293T (A19); K562 (A23)
T1 sequence (Q9HC52 1-389): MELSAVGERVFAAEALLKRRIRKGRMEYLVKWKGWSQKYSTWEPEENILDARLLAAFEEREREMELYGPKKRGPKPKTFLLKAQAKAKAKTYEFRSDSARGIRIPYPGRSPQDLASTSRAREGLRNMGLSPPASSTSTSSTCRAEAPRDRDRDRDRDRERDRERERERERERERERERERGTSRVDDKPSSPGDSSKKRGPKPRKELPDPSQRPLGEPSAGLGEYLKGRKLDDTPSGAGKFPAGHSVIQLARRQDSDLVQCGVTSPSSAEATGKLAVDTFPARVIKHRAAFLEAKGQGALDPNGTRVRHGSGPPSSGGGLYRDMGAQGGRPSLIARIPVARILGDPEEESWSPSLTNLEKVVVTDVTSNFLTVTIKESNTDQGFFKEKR
As to the kind of experiment: ChIP-qPCR in Hs68 fibroblast cells. The conditions noted are these: 100 μM, 4 h. The class given is cell-based. The protocol:
ChIP: Hs68 cells were seeded at 4×10^6 in a 10 cm cell culture plates 16 hours prior to treatment. […] ChIP was performed as described in Connelly et al., 2018. Birefly, cells were washed with PBS and fixed on the plate with CiA Fix buffer (50 mM HEPES, pH 8.0, 1 mM EDTA, 0.5 mM ETGA, 100 mM NaCl) and 1% formaldehyde for 10 min at room temperature. Crosslinking was quenched with 0.125 M glycine for 5 min at 4° C. Cells were washed once with PBS and lifted off the plate then resuspended in CiA NP Rinse buffer 1 (50 mM HEPES pH 8.0, 140 mM NaCl, 1 mM EDTA, 10% glycerol, 0.5% NP-40, 0.25% Triton X) for 10 min. Cells were pelleted at 1200×g for 5 min at 4° C. The supernatant was removed, and the cells were resuspended in CiA NP rinse buffer 2 (10 mM Tris pH 8.0, 1 mM EDTA, 0.5 mM EGTA, 200 mM NaCl). Cells were collected by centrifugation, 1200×g for 5 min. Supernatant was removed and the cells were washed twice with shearing buffer (0.1% SDS, 1 mM EDTA, 10 mM Tris HCl, pH 8.0). Cells were resuspended in shearing buffer and sonicated for 7 min with the probe (Branson). Lysate was centrifuged at 21,000×g for 15 min to remove debris. Supernatant was collected and pre-cleared overnight with Protein A/G magnetic beads (Pierce). […]
qPCR: qPCR was performed on the isolated ChIP DNA using SYBR master mix (Thermo) and run on the BioRad CFX thermo cycler. […] Enrichment was determined by percent input. […]
(In general: Real-time PCR tracks product formation cycle by cycle.)

Square brackets hold non-standard residues; d marks the D form. Peptide text beside a SMILES is read from it. * marks the point of attachment. Tyr(3-Cl) = N[C@@H](Cc1ccc(O)c(Cl)c1)C(=O)O; Benzoyl(3,5-Cl2) = O=C(c1cc(Cl)cc(Cl)c1)*; Lys(Et2) = CCN(CC)CCCC[C@H](N)C(=O)O; Gly(cPent) = N[C@H](C(=O)O)C1CCCC1; NH(propargyl) = C#CCN*

Consider `C#CCNC(=O)[C@H](CO)NC(=O)[C@H](CCCCN(CC)CC)NC(=O)[C@@H](NC(=O)[C@@H](NC(=O)[C@H](Cc1ccc(O)c(Cl)c1)NC(=O)c1cc(Cl)cc(Cl)c1)C1CCCC1)[C@@H](C)CC` [SW2_152F] ({Benzoyl(3,5-Cl2)}-[Tyr(3-Cl)][Gly(cPent)]I[Lys(Et2)]S-{NH(propargyl)}), for which the “CBX8 binding at target loci, ChIP-qPCR” value is “significant reduction of CBX8 binding”.
